Experimental data from US10517889B2, “Modulators of SMAD7 expression” (Ionis Pharmaceuticals, Inc., priority 2017, dated 2019).
Strand notation (5' to 3'): a small letter for the sugar, then the base; units joined by * are phosphorothioate-linked, units joined directly phosphodiester-linked; [ ] holds rarer units or linkages, { } end groups; capitals alone tell only the bases. k = constrained ethyl (cEt); [5mC] = 5-methylcytosine; d = 2'-deoxy (DNA)

Test system: human SMAD7 mRNA
Experiment: Antisense inhibition of human SMAD7 mRNA expression in Hep3B cells by 3-10-3 cEt gapmers, 10,000 nM, electroporation (Example 2)
Type: cell-based
Conditions: Hep3B cells, electroporation with 10,000 nM antisense oligonucleotide, approximately 24 hours, primer probe set RTS5062, relative to untreated control cells
Procedure, shortened: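 Hep3B cells (20,000 per well) were electroporated with 10,000 nM 16-mer 3-10-3 cEt gapmer (phosphorothioate, 5-methylcytosine). After about 24 h, SMAD7 mRNA was quantified by qRT-PCR with primer probe set RTS5062, normalised to RIBOGREEN total RNA, and expressed as percent inhibition versus untreated cells.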

| Substance | % Inhibition [%] | % inhibition of SMAD7 mRNA expression [%] |
| --- | --- | --- |
| 799061 (antisense kT*kT*k[5mC]*dG*dG*d[5mC]*d[5mC]*dA*d[5mC]*dT*dA*dG*d[5mC]*kA*kG*kG) [compound 799061] | 45 |  |
| 799062 (antisense k[5mC]*kT*kG*dG*dT*dT*d[5mC]*dG*dG*d[5mC]*d[5mC]*dA*d[5mC]*kT*kA*kG) [compound 799062] | 45 |  |
| 799063 (antisense kT*kG*kG*dT*dT*d[5mC]*dT*dG*dG*dT*dT*d[5mC]*dG*kG*k[5mC]*k[5mC]) [compound 799063] |  | 9 |
| 799064 (antisense kT*kA*kA*dT*dT*dG*dG*dT*dT*d[5mC]*dT*dG*dG*kT*kT*k[5mC]) [compound 799064] |  | 47 |
| 799065 (antisense kA*kA*kA*dT*dA*dA*dT*dT*dG*dG*dT*dT*d[5mC]*kT*kG*kG) [compound 799065] |  | 35 |
| 799066 (antisense kT*kG*kA*dA*dA*dA*dT*dA*dA*dT*dT*dG*dG*kT*kT*k[5mC]) [compound 799066] |  | 0 |
| 799068 (antisense kG*kA*k[5mC]*dA*dA*dG*dG*dA*dT*dG*dA*dA*dA*kA*kT*kA) [compound 799068] |  | 49 |
| 799069 (antisense kA*kT*kA*dA*dG*dA*d[5mC]*dA*dA*dG*dG*dA*dT*kG*kA*kA) [compound 799069] |  | 18 |
| 799071 (antisense kG*kG*kA*dA*dG*dG*dG*dA*dA*dT*dA*dA*dG*kA*k[5mC]*kA) [compound 799071] |  | 44 |
| 799072 (antisense kG*k[5mC]*kA*dG*dG*dA*dA*dG*dG*dG*dA*dA*dT*kA*kA*kG) [compound 799072] |  | 55 |
| 799073 (antisense k[5mC]*kG*k[5mC]*dT*dA*d[5mC]*dA*dA*dT*dG*dG*d[5mC]*dA*kG*kG*kG) [compound 799073] | 34 |  |
| 799074 (antisense k[5mC]*kA*kA*dA*dA*dA*dA*dG*dA*dA*dA*dG*dA*k[5mC]*kG*k[5mC]) [compound 799074] | 9 |  |
| 799075 (antisense kA*kG*kA*dT*dG*dG*d[5mC]*d[5mC]*dA*dA*dA*dA*dA*kA*kG*kA) [compound 799075] | 0 |  |
| 799076 (antisense kA*kG*k[5mC]*dA*dG*dA*dT*dG*dG*d[5mC]*d[5mC]*dA*dA*kA*kA*kA) [compound 799076] | 34 |  |
| 799077 (antisense k[5mC]*kA*kG*dG*dA*dG*d[5mC]*dA*dG*dA*dT*dG*dG*k[5mC]*k[5mC]*kA) [compound 799077] | 28 |  |
| 799078 (antisense kA*kT*k[5mC]*d[5mC]*dA*dG*dG*dA*dG*d[5mC]*dA*dG*dA*kT*kG*kG) [compound 799078] | 19 |  |
| 799079 (antisense kG*kA*kG*dA*dT*d[5mC]*d[5mC]*dA*dG*dG*dA*dG*d[5mC]*kA*kG*kA) [compound 799079] | 46 |  |
| 799080 (antisense kA*kG*kG*dG*dA*dG*dA*dT*d[5mC]*d[5mC]*dA*dG*dG*kA*kG*k[5mC]) [compound 799080] | 56 |  |
| 799081 (antisense kT*k[5mC]*kT*d[5mC]*dA*dG*dG*dG*dA*dG*dA*dT*d[5mC]*k[5mC]*kA*kG) [compound 799081] | 28 |  |
| 799082 (antisense kG*k[5mC]*k[5mC]*d[5mC]*dA*dT*d[5mC]*dT*d[5mC]*dA*dG*dG*dG*kA*kG*kA) [compound 799082] | 27 |  |
| 799083 (antisense kG*kG*kA*dA*dG*d[5mC]*d[5mC]*d[5mC]*dA*dT*d[5mC]*dT*d[5mC]*kA*kG*kG) [compound 799083] |  | 0 |
| 799084 (antisense k[5mC]*kT*kT*dG*dG*dG*dA*dA*dG*d[5mC]*d[5mC]*d[5mC]*dA*kT*k[5mC]*kT) [compound 799084] |  | 0 |
| 799085 (antisense kG*k[5mC]*k[5mC]*d[5mC]*dT*dT*dG*dG*dG*dA*dA*dG*d[5mC]*k[5mC]*k[5mC]*kA) [compound 799085] |  | 10 |
| 799086 (antisense kG*kG*k[5mC]*dA*dG*d[5mC]*d[5mC]*d[5mC]*dT*dT*dG*dG*dG*kA*kA*kG) [compound 799086] |  | 0 |
| 799087 (antisense k[5mC]*k[5mC]*k[5mC]*d[5mC]*dG*dG*d[5mC]*dA*dG*d[5mC]*d[5mC]*d[5mC]*dT*kT*kG*kG) [compound 799087] |  | 69 |
| 799088 (antisense kG*k[5mC]*kT*dG*d[5mC]*d[5mC]*d[5mC]*d[5mC]*dG*dG*d[5mC]*dA*dG*k[5mC]*k[5mC]*k[5mC]) [compound 799088] |  | 24 |
| 799090 (antisense kG*kT*kG*dA*dG*d[5mC]*dA*dA*dT*dA*d[5mC]*dT*dG*kT*kG*kA) [compound 799090] |  | 49 |

| Substance | % Inhibition [%] | % inhibition of SMAD7 mRNA expression [%] |
| --- | --- | --- |
| 799091 (antisense kA*k[5mC]*kT*dG*dG*dG*dT*dG*dA*dG*d[5mC]*dA*dA*kT*kA*k[5mC]) [compound 799091] |  | 42 |
| 799092 (antisense kG*kG*k[5mC]*dA*d[5mC]*dT*dG*dG*dG*dT*dG*dA*dG*k[5mC]*kA*kA) [compound 799092] |  | 30 |
| 799093 (antisense kG*kT*k[5mC]*dA*d[5mC]*d[5mC]*dA*dG*dG*dG*d[5mC]*dA*dG*kG*k[5mC]*kA) [compound 799093] | 47 |  |
| 799094 (antisense kT*kG*kA*dT*dG*dT*d[5mC]*dA*d[5mC]*d[5mC]*dA*dG*dG*kG*k[5mC]*kA) [compound 799094] | 57 |  |
| 799095 (antisense kA*k[5mC]*k[5mC]*dT*dG*dA*dT*dG*dT*d[5mC]*dA*d[5mC]*d[5mC]*kA*kG*kG) [compound 799095] | 0 |  |
| 799096 (antisense kA*kA*k[5mC]*d[5mC]*dT*dG*dA*dT*dG*dT*d[5mC]*dA*d[5mC]*k[5mC]*kA*kG) [compound 799096] | 30 |  |
| 799097 (antisense kA*kA*kA*d[5mC]*d[5mC]*dT*dG*dA*dT*dG*dT*d[5mC]*dA*k[5mC]*k[5mC]*kA) [compound 799097] | 39 |  |
| 799098 (antisense kA*kA*kA*dA*d[5mC]*d[5mC]*dT*dG*dA*dT*dG*dT*d[5mC]*kA*k[5mC]*k[5mC]) [compound 799098] | 38 |  |
| 799099 (antisense kA*kA*kA*dA*dA*d[5mC]*d[5mC]*dT*dG*dA*dT*dG*dT*k[5mC]*kA*k[5mC]) [compound 799099] | 44 |  |
| 799100 (antisense kG*kA*kA*dA*dA*dA*d[5mC]*d[5mC]*dT*dG*dA*dT*dG*kT*k[5mC]*kA) [compound 799100] | 38 |  |
| 799101 (antisense kG*kG*kA*dA*dA*dA*dA*d[5mC]*d[5mC]*dT*dG*dA*dT*kG*kT*k[5mC]) [compound 799101] | 55 |  |
| 799102 (antisense k[5mC]*kG*kG*dG*dA*dA*dA*dA*dA*d[5mC]*d[5mC]*dT*dG*kA*kT*kG) [compound 799102] | 34 |  |
| 799103 (antisense k[5mC]*k[5mC]*kG*dG*dG*dA*dA*dA*dA*dA*d[5mC]*d[5mC]*dT*kG*kA*kT) [compound 799103] |  | 12 |
| 799104 (antisense kA*kG*kT*d[5mC]*d[5mC]*dG*dG*dG*dA*dA*dA*dA*dA*k[5mC]*k[5mC]*kT) [compound 799104] |  | 40 |
| 799105 (antisense k[5mC]*kT*kA*dA*dG*dT*d[5mC]*d[5mC]*dG*dG*dG*dA*dA*kA*kA*kA) [compound 799105] |  | 12 |
| 799106 (antisense kT*kT*kT*dT*d[5mC]*dT*dA*dA*dG*dT*d[5mC]*d[5mC]*dG*kG*kG*kA) [compound 799106] |  | 34 |
| 799107 (antisense k[5mC]*kT*kG*dG*dT*dT*dT*dT*d[5mC]*dT*dA*dA*dG*kT*k[5mC]*k[5mC]) [compound 799107] |  | 51 |
| 799108 (antisense k[5mC]*kT*kG*dA*dG*d[5mC]*dT*dG*dG*dT*dT*dT*dT*k[5mC]*kT*kA) [compound 799108] |  | 64 |
| 799109 (antisense k[5mC]*kA*kG*dT*dG*d[5mC]*dT*dG*dA*dG*d[5mC]*dT*dG*kG*kT*kT) [compound 799109] |  | 48 |
| 799110 (antisense kA*kG*kG*d[5mC]*dA*dG*dT*dG*d[5mC]*dT*dG*dA*dG*k[5mC]*kT*kG) [compound 799110] |  | 33 |
| 799111 (antisense kA*kG*k[5mC]*dA*dG*dG*d[5mC]*dA*dG*dT*dG*d[5mC]*dT*kG*kA*kG) [compound 799111] |  | 50 |
| 799112 (antisense kG*kG*kG*dA*dG*d[5mC]*dA*dG*dG*d[5mC]*dA*dG*dT*kG*k[5mC]*kT) [compound 799112] |  | 58 |
| 799113 (antisense kG*kA*kT*dG*dG*dG*dA*dG*d[5mC]*dA*dG*dG*d[5mC]*kA*kG*kT) [compound 799113] | 57 |  |
| 799114 (antisense k[5mC]*kA*kG*dG*dA*dT*dG*dG*dG*dA*dG*d[5mC]*dA*kG*kG*k[5mC]) [compound 799114] | 35 |  |
| 799115 (antisense kA*k[5mC]*kA*d[5mC]*dA*dG*dG*dA*dT*dG*dG*dG*dA*kG*k[5mC]*kA) [compound 799115] | 40 |  |
| 799116 (antisense kT*kA*kA*d[5mC]*dA*d[5mC]*dA*d[5mC]*dA*dG*dG*dA*dT*kG*kG*kG) [compound 799116] | 34 |  |
| 799117 (antisense kG*k[5mC]*kT*dT*dA*dA*d[5mC]*dA*d[5mC]*dA*d[5mC]*dA*dG*kG*kA*kT) [compound 799117] | 46 |  |
